Data taken from patent US20250326785A1, “SODIUM SALT AND ETHANOLAMINE SALT OF 23-HYDROXYTORMENTIC ACID” (HUYABIO International, LLC, priority 2024, published 2025).

What was measured:
[1] = Varying temperature (VT)-XRPD; assay type: physicochemical; conditions: heating 25 to 250° C. (ethanolamine salt to 300° C.)
Procedure: Varying temperature (VT)-XRPD was carried out between 25-250° C.
VT-XRPD of HBI-3808 sodium salt of Pattern 5 was carried out between 25-250° C. (FIG. 5M). […] At 150° C., the diffractogram changed and was labelled as Pattern 7, indicating formation of HBI-3808 sodium salt of Pattern 7 (see Example 7). Diffractogram of Pattern 7, was observed between 150-250° C. Upon cooling to 25° C., Diffractogram of Pattern 5 was observed again, indicating reformation of HBI-3808 sodium salt of Pattern 5. Pattern 7 has some similarities with Pattern 6 (See Example 6). Both Patterns 6 and 7 may represent anhydrous forms of the HBI-3808 sodium salt. Starting concentration of the of HBI-3808 sodium salt of Pattern 5.
VT-XRPD was carried out according to the temperature program of Table 17B. […] At 210° C., the XRPD diffractogram was consistent with poorly crystalline BBI-3808 free acid of Pattern 1. Free acid (HBI-3808) of Pattern 1 was observed between 210-240° C.

[2] = Single-dose IV and oral pharmacokinetic study in rabbits; assay type: in vivo, New Zealand White Rabbits; conditions: rabbit
Source text: Eight groups (n=3) of rabbits received single doses of HBI-3802 or the sodium salt (form 5) HBI-3808 either by intravenous dosing or by oral dosing. HBI-3802 was formulated in 20% PG +80% (20% Captisol in pH 7.4 PBS buffer), and HBI-3808 was formulated in 5% NMP+15% EtOH+10% Tween 80+70% (20% Captisol in pH 7.4 PBS buffer). In addition, normal or enteric coated capsules were used to orally deliver the sodium salt (form 5) of HBI-3808. To allow determination of oral absolute bioavailability, both HBI-3802 and HBI-3808 were delivered IV at a dose of 0.3 mg/kg and blood samples obtained at 0, 0.25, 0.5, 0.75, 1,2,4,8,12,24,48, and 72 hours after dosing for derivation of plasma used to determine plasma concentrations by LC-MS. The HBI-3802 0.3 mg/kg plasma concentrations were compared to plasma concentrations obtained at the same time points from rabbits receiving single oral doses of […] at 1 or 5 mg/kg. The HBI-3808 0.3 mg/kg plasma concentrations were compared to plasma concentrations from groups of rabbits receiving oral gavage of 1 mg/kg HBI-3808 solution or 5 mg/kg HBI-3808 solution and from rabbits receiving 5 mg/kg of the sodium salt (form 5) of HBI-3808 in normal capsules or in enteric coated capsules.

[3] = PO 5 mg/kg in enteric coated capsules

temperature range in which diffractograms consistent with the input salt were observed [1]: 25-115 °C | bioavailability ([2]; PO 1 mg/kg in 5% NMP+15% EtOH+10% tween 80+70% (20% Captisol in pH 7.4 PBS buffer)): 17.9% | bioavailability ([2]; PO 5 mg/kg in 5% NMP+15% EtOH+10% tween 80+70% (20% Captisol in pH 7.4 PBS buffer)): 27.7% | absorption onset delayed until [2, 3]: 8 h | bioavailability [2, 3]: 10.9% | bioavailability ([2]; PO 5 mg/kg in normal capsules): 10.7%
SMILES: CC1CCC2(C(=O)[O-])CCC3(C)C(=CCC4C5(C)CC(O)C(O)C(C)(CO)C5CCC43C)C2C1(C)O.[Na+] (stereo not shown) [HBI-3808 sodium salt of Pattern 5, sodium salt of 23-hydroxytormentic acid]
dose dependence of Cmax and AUC ([2]; PO 1 and 5 mg/kg solution): dose proportional increases with low variability
